From patent US10543162B2 (Rutgers, The State University of New Jersey, priority 2015, dated 2020)

Legend:
[1] = Dienol (4) Log P determination by reverse-phase HPLC; assay type: physicochemical; conditions: for chromatographic logP: from HPLC log kw via calibration curve of reference samples' published Log Po,w, read-out: Calculated Log P Values; for Calculated kw: retention factor at 100% buffer, extrapolated from HPLC retention factors at MeOH:buffer 45:55→60:40, 25° C.
Method: Log P, partitioning coefficient of respective compounds between a hydrophilic (aqueous) and lipophilic (oil) phase, studies were conducted to investigate the relative hydrophobicity of Dienols (4). Using HPLC equipped with an XTerra reverse-phase C18 (RP18) 3.5 μm 4.6×150 mm column (Waters, Milford, Mass.) and Waters 2695 Separations Module, sample retention times were analyzed via a Waters 2487 Dual λ Absorbance Detector monitoring 254 and 270 nm. Mobile phases of HPLC grade methanol (MeOH) and 50 mM KH2PO4 with 1% formic acid in HPLC grade water were utilized at varying ratios (45:55→60:40) and run at 1 mL/min flow rate and 25° C. (Ayouni, et al., Chromatographia 2005, 62, (5-6), 251-255). All samples were first dissolved in DMSO and subsequently diluted with phosphate-buffer saline (PBS) to acquire 1% DMSO solutions and filtered through 0.22 μm PVDF syringe filters prior to autoinjection (20 μL).
Dienol retention factor (k) for each methanol concentration was calculated according to equation one, where tR and t0 are the retention times of the Dienols and dead time, as determined by the injection of sodium nitrate (Ayouni, et al., Chromatographia 2005, 62, (5-6), 251-255), respectfully. From the obtained retention factors the kw, retention factor at 100% buffer, was extrapolated. Hydroxybenzyl alcohol, benzyl alcohol, 2-phenylethanol, methylparaben, anisole, toluene, and thymol were used as reference samples and their retention times acquired. Using reference samples' published Log Po,w values (OECD Nuclear Energy Agency.; Organisation for Economic Co-operation and Development. In OECD guidelines for the testing of chemicals 117, Organisation for Economic Co-Operation and Development: Paris, 2004), a calibration curve was generated in which Log Po,w values were plotted on the y-axis whereas log kw values, obtained from the same method as above, were plotted on the x-axis (Ouimet, et al., Biomacromolecules 2015, 16, 2911-2919). Dienol Log P values were then calculated from the curve using equation 2. kw=(tR−t0)/t0 Equation 1 Log P=slope×log kw+y−intercept Equation 2
Thus, Dienol Log P values were extrapolated from an HPLC method to determine lipophilicity (OECD Nuclear Energy Agency.; Organisation for Economic Co-operation and Development. In OECD guidelines for the testing of chemicals 117, Organisation for Economic Co-Operation and Development: Paris, 2004). Retention factors (k) were calculated according to equation 1 for each concentration of MeOH and kw values extrapolated based off the retention times (Table 1).

3T3 mouse fibroblasts = assay: Cytotoxicity / cytocompatibility (MTS cell viability); assay type: cell-based; conditions: 1000 μM, after 24 h
Method: In vitro cytocompatibility studies were performed by culturing 3T3 mouse fibroblasts in cell media (Dulbecco's Modified Eagle Medium supplemented with 10% Fetal Bovine Serum, 1% Penicillin Streptomycin, and 1% L-glutamate) containing the KA poly(carbonate-esters). Polymers (5a-5c, 6a-6e) and Dienols (4a-4e) were first sterilized under UV at λ=254 nm for 900 s (Spectronics Corporation, Westbury, N.Y.) and subsequently dissolved in DMSO to acquire a stock solution. The stock solution was then serial diluted with cell media. Cells were seeded in a 96-well plate at 2,000 cells/well in […]. Following incubation for 1 h, polymer-containing media in 1% DMSO, at concentrations capable of inhibiting tyrosinase (0.1 mg/mL, 0.01 mg/mL and 0.001 mg/mL) were added to allocated wells in a 96-well plate and incubated at 37° C. DMSO (1%) in cell media was used as a negative control.
Cell viability was determined using CellTiter 96® Aqueous One Solution Cell Proliferation Assay. After 24 h, 48 h, and 72 h incubation with polymers, 20 μL of (3-(4,5-dimethylthiazol-2-yl)-5-(3-carboxymethoxyphenyl)-2-(4-sulfophenyl)-2H-tetrazolium) (MTS) reagent was added to each well and further incubated for 4 h at 37° C. The absorbance was then recorded with a microplate reader (Coulter, Boulevard Brea, Calif.) at 490 nm. […]

Row | Compound | chromatographic logP [1] | Calculated kw [1] | cytocompatibility (3T3 mouse fibroblasts)
1 | O=C(CCC(=O)OCc1cc(=O)c(O)co1)OCc1cc(=O)c(O)co1 [Compound 4a, KA (succinic) Dienol] | 0.353 | 0.806 | –
2 | O=C(CCCCCCCC(=O)OCc1cc(=O)c(O)co1)OCc1cc(=O)c(O)co1 [Compound 4c, KA (Azelaic) Dienol] | 2.59 | 16.0 | –
3 | O=c1cc(CO)occ1O [Kojic Acid, 5-Hydroxy-2-(hydroxymethyl)-4-pyrone] | – | – | slightly cytotoxic
4 | O=C(CCCCCCCCC(=O)OCc1cc(=O)c(O)co1)OCc1cc(=O)c(O)co1 [Compound 4d, KA (sebacic) Dienol] | 3.1 | 31.6 | –
5 | O=C(COCCOCCOCC(=O)OCc1cc(=O)c(O)co1)OCc1cc(=O)c(O)co1 [Compound 4e, KA (Tetraglycolic) Dienol] | 0.235 | 0.688 | –
6 | O=C(CCCCC(=O)OCc1cc(=O)c(O)co1)OCc1cc(=O)c(O)co1 [Compound 4b, KA (adipic) Dienol] | 1.17 | 2.40 | –
